According to article PMC10223284, “Category-Based Toxicokinetic Evaluations of Data-Poor Per- and Polyfluoroalkyl Substances (PFAS) using Gas Chromatography Coupled with Mass Spectrometry” (Toxics, 2023):
“And” between values parts separate entries of the source, which are not always exact repeats. Identical values can stand only once. Like-named read-outs stand apart in the source and are kept apart here.

Experiments:
in vitro = settings: both, human, plasma
[1] = In vitro-in vivo extrapolation (IVIVE) to Css and administered equivalent dose (AED); set-up: species or system human
In short: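 Administered equivalent doses come from pairing modelled Css with literature in vitro LOECs. Css itself is predicted by IVIVE from experimental hepatic Clint, scaled up to whole-liver clearance in L/h, and experimental fraction unbound in plasma. That fraction was adjusted to unbound-in-blood via blood:plasma partitioning.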

[2] = tested on: pooled human cryopreserved primary hepatocyte suspensions; assay: Hepatic metabolic stability (hepatocyte clearance) assay, substrate depletion; assay type: in vitro ADME
In short: (§1)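 Substrate depletion of 1 μM compound, 37 °C, with pooled human hepatocytes (50-donor, 50,000 cells/100 μL) in William's E; samples quenched in acetonitrile up to 240 min, triplicate time points. Intrinsic clearance (μL/min/million hepatocytes) and half-life derived from semi-log slope, background-adjusted using media-only and inactivated-cell controls; compounds with ≥50% abiotic loss at T120 excluded.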

[3] = as above; assay type: in vitro ADME, human; settings: both sexes, human
In short: as §1

human plasma [4] = assay: Chemical stability in plasma over the UC assay time course (T5hr/T1hr)
human plasma [5] = assay: Ultracentrifugation (UC) plasma protein binding assay, fraction unbound in plasma (fup)
[6] = Abiotic loss in negative controls of the hepatocyte clearance assay (cell-free media, metabolically inactivated hepatocytes); assay type: in vitro ADME
In short: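 Abiotic stability was checked with media-only and inactivated-hepatocyte controls, run at T0 and T240 or, on rerun, at more time points. Compound at 1 μM, 37 °C, acetonitrile quench. Loss rates served for background subtraction, and ≥50% loss by T120 meant exclusion.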

[7] = hepatocyte incubation, Rep 1-3, start conc 1000 nM
[8] = heat treated hepatocytes, Rep 1-3

OCC(F)(F)C(F)(F)C(F)(F)C(F)(F)C(F)(F)C(F)(F)C(F)(F)C(F)(F)CO [1H,1H,10H,10H-Perfluorodecane-1,10-diol]
fraction unbound (in vitro; Fraction Unbound (fu), Run-specific Avg, average of one UC run): 0.84 | fraction unbound (in vitro; Fraction Unbound (fu), Run-specific Avg, average of one UC run (run date in line above)): 0.00495 | fraction unbound (in vitro; Fraction Unbound (fu), individual replicates A, B, C of the UC run named in c8): 0.83 | fraction unbound (in vitro; Fraction Unbound (fu), replicates A, B, C, single replicate of one UC run (aqueous fraction / Time 5 hr)): 0.00438 | fraction unbound (in vitro; Mean Fu, mean fraction unbound in human plasma over all UC replicates/runs): 0.841 | fraction unbound (in vitro; Mean Fu, mean fraction unbound over all replicates and runs, UC assay, human plasma): 0.00469 | fraction unbound (in vitro; Mean fu, fraction unbound in human plasma, ultracentrifugation, some values based on eLOQ): 0.0047 | Css ([1]; Assuming 1 mg/kg/day dose rate, BW 70 kg): 0.68 mg/L and 1.47 uM | Clhep ([1]; IVIVE, hepatocyte Clint scaled to whole-liver clearance): 4.275 L/h | AED ([1]; administered equivalent dose from LOEC and Css): 1.3619 mg/kg/day | Fub ([1]; fub=fup/(B:P), Fub set to 1 if needed): 0.008545 | Css ([1]; human steady-state plasma concentration, assuming 1 mg/kg/day dosage): 1.47 µM | CLint ([1]; scaled with HPGL 110 mill cells/g, Vl 1596 g): 8753422 µL/min | Concentration (nM), Time 0 min [2, 7]: 503.86 nM and 483.613 nM and 411.089 nM | Concentration (nM), Time 15 min [2, 7]: 181.506 nM and 316.777 nM and 270.544 nM | Concentration (nM), Time 30 min [2, 7]: 207.766 nM and 203.542 nM and 107.454 nM | Linear Regression Results, Best-Fit Values, Slope ([2]; hepatocyte time course): -0.0283 | In Vitro Clint ([2]; pooled human hepatocyte suspensions, 1 μM): 49.86 μL/min/10^6 cells | hepatocyte CLint at 1 μM ([3]; hepatocytes, background-subtracted, read-out: Bkgd-Sub Clearance (µL/min/106 hepatocytes)): 56.6 µL/min/1e6 cells | hepatocyte CLint at 1 μM ([3]; hepatocytes, hepatocyte clearance, Conc 1000 nM, not background adjusted, read-out: Unadj Clint): 56.6 µL/min/1e6 cells | hepatocyte CLint at 1 μM ([3]; hepatocytes, pooled human hepatocyte suspensions, 1 μM, read-out: In Vitro Clint): 49.9 µL/min/1e6 cells | hepatocyte CLint at 1 μM ([3]; hepatocytes, unadjusted hepatocyte intrinsic clearance, read-out: Unadj in vitro Clint): 56.6 µL/min/1e6 cells | hepatocyte CLint at 1 μM ([3]; hepatocytes, hepatocyte time course, NS = slope not significant, read-out: Linear Regression Results, Best-Fit Values, Clearance): 56.6 µL/min/1e6 cells | half-life at 1 μM ([3]; hepatocytes, hepatocyte time course, NS = slope not significant, read-out: Linear Regression Results, Best-Fit Values, Half Life): 0.408 h | hepatocyte CLint at 1 μM ([3]; s9, Bayesian analysis median, 1 μM assay concentration (Table S9), read-out: Clint.1.Med): 115 µL/min/1e6 cells | Time 1 hr (human plasma [4]; amount measured in plasma sample at 1 hr, replicates A, B, C, unit not given): 7311.43 and 5462.42 and 6036.15 | Time 1 hr, Run-specific Avg (human plasma [4]; amount measured in plasma sample at 1 hr, run average, unit not given): 6270.00 | Time 5 hr (human plasma [4]; amount measured in plasma sample at 5 hr, replicates A, B, C, unit not given): 3659.49 and 4052.89 and 4429.19 | Time 5 hr, Run-specific Avg (human plasma [4]; amount measured in plasma sample at 5 hr, run average, unit not given): 3856.19 | Stability (T5hr/ T1hr), Run-specific Avg (human plasma [4]; average of one UC run): 0.615 | Stability (T5hr/ T1hr), Run-specific Avg (human plasma [4]; average of one UC run (run date in line above)): 0.958 | PPB_Stab_Fail (human plasma [4]; flag for stability failure in the plasma protein binding assay (1 = fail, 0 = pass)): 0 | Mean Stability (human plasma [4]; mean T5hr/T1hr ratio in plasma over all replicates/runs): 0.657 | Mean Stability (human plasma [4]; mean T5hr/T1hr ratio over all replicates and runs, plasma): 1.003 | Fstable.Med (human plasma [4]; median fraction stable in plasma, UC assay Level4): 0.997 | Stability (T5hr/ T1hr), replicates A, B, C (human plasma [4]; single replicate of one UC run): 1.07 and 1.007 and 0.9333 and 0.9811 and 1.003 and 1.254 | Aqueous Fraction (human plasma [5]; amount measured in aqueous fraction after ultracentrifugation, replicates A, B, C, unit not given): 3710.68 and 3362.14 and 3011.07 | Aqueous Fraction, Run-specific Avg (human plasma [5]; amount measured in aqueous fraction after ultracentrifugation, run average, unit not given): 3361.30 | fup (human plasma [5]; human plasma, 10 μM, ultracentrifugation, 37 °C): 0.0047 | Fup.Med (human plasma [5]; median fraction unbound in plasma, UC assay Level4): 0.00408 | Fup.point (human plasma [5]; point estimate of fraction unbound in plasma, UC assay Level4): 0.00496 | Fraction Unbound (fu), replicates A, B, C (human plasma [5]; single replicate of one UC run (aqueous fraction / Time 5 hr)): 0.005168 and 0.005301 and 0.003775 and 0.006151 and 0.003351 | half-life at 1 μM ([6]; both sexes, human, heat treated hepatocytes control, 0 vs 240 min, read-out: HT BkgdCl, Half Life): 4.63 h | half-life at 1 μM ([6]; buffer, no cells control, 0 vs 240 min, read-out: No Cells BkgdCl, Half Life): 3.43 h | Hep_Stab_Fail ([6]; flag for stability failure in hepatocyte clearance assay controls (1 or Fst = fail, 0 = pass)): 0 | HT BkgdCl, Slope ([6]; heat treated hepatocytes control, 0 vs 240 min): -0.002496 | Negative Controls, Heat Treated (HT), concentration at 0 min [6, 8]: 370.156 nM and 373.519 nM and 421.129 nM | Negative Controls, Heat Treated (HT), concentration at 240 min [6, 8]: 211.286 nM and 241.673 nM and 189.092 nM | No Cells BkgdCl, Slope ([6]; no cells control, 0 vs 240 min): -0.003368 | Negative Controls, No cells (NC), concentration at 0 min ([6]; no cells, Rep 1-3): 394.883 nM and 393.112 nM and 400.596 nM | Negative Controls, No cells (NC), concentration at 240 min ([6]; no cells, Rep 1-3): 205.477 nM and 157.76 nM and 169.683 nM
